According to patent US20260200897A1, “4-((5-(3-(4-(PYRIDIN-2-YL)CYCLOPENTYL)-1H-PYRAZOL-3-YL)AMINO)-BENZENESULFONAMIDE DERIVATIVES AND SIMILAR COMPOUNDS AS CDK INHIBITORS FOR THE TREATMENT OF CANCER” (BeOne Medicines I GmbH, priority 2023, published 2026):

What was measured:
CDK1/Cyclin B1 = CDK1/Cyclin B1 (Homo sapiens, UniProt P06493); test: CDK1/Cyclin B1 TR-FRET biochemical assay, 0.015 mM ATP; details: 0.15 μM Rb (Ser780)-biotin substrate, 120 min reaction, Table 1
CDK2/Cyclin E1 = CDK2/Cyclin E1 (Homo sapiens, UniProt P24941); test: CDK2/Cyclin E1 TR-FRET biochemical assay, 0.060 mM ATP; details: 0.15 μM Rb (Ser780)-biotin substrate, 120 min reaction, Table 1

Sequence of CDK1/Cyclin B1 (P06493 whole entry): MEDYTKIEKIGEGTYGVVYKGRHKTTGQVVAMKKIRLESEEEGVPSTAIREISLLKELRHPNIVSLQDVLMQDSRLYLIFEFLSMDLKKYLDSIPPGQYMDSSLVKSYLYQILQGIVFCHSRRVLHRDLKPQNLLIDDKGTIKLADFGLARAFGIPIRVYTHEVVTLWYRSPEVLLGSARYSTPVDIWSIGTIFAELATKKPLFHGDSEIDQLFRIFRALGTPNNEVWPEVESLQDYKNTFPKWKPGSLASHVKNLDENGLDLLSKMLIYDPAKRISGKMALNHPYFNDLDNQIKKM
Sequence of CDK1/Cyclin B1 (P14635 whole entry partner): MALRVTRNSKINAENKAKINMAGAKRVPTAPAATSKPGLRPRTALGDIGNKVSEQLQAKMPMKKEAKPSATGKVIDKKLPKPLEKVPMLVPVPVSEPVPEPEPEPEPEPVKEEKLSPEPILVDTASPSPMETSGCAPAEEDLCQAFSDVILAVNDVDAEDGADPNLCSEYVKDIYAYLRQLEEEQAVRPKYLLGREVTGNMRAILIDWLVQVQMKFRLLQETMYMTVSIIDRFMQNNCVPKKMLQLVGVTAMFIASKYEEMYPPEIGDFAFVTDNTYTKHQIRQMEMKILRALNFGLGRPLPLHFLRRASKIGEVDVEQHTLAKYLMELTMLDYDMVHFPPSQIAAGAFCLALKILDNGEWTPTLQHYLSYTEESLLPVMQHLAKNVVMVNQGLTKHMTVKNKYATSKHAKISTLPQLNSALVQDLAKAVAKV

Structure (SMILES): O=c1c(C2CC2)ccnn1[C@H]1CC[C@@H](c2cc(Nc3ccc4c(c3F)CNS4(=O)=O)n[nH]2)C1 (relative stereo) [Example 28, cis-4-cyclopropyl-2-(3-(3-((4-fluoro-1,1-dioxido-2,3-dihydrobenzo[d]isothiazol-5-yl)amino)-1H-pyrazol-5-yl)cyclopentyl)pyridazin-3 (2H)-one]
- IC50 (CDK1/Cyclin B1): 1240 nM
- IC50 (CDK2/Cyclin E1): 130 nM

Structure (SMILES): CC1(n2cnnc2O[C@@H]2CC[C@H](c3cc(Nc4ccc5c(c4F)CNS5(=O)=O)n[nH]3)C2)CC1 (relative stereo) [Example 58, cis-4-fluoro-5-((5-(3-((4-(1-methylcyclopropyl)-4H-1,2,4-triazol-3-yl)oxy)cyclopentyl)-1H-pyrazol-3-yl)amino)-2,3-dihydrobenzo[d]isothiazole 1,1-dioxide]
- IC50 (CDK1/Cyclin B1): 7200 nM
- IC50 (CDK2/Cyclin E1): 269 nM

Structure (SMILES): C=C(C)c1csnc1O[C@@H]1CC[C@H](c2cc(Nc3ccc4c(c3F)CNS4(=O)=O)n[nH]2)C1 (relative stereo) [Example 52, cis-4-fluoro-5-((5-(3-((4-(prop-1-en-2-yl)isothiazol-3-yl)oxy)cyclopentyl)-1H-pyrazol-3-yl)amino)-2,3-dihydrobenzo[d]isothiazole 1,1-dioxide]
- IC50 (CDK1/Cyclin B1): 121 nM
- IC50 (CDK2/Cyclin E1): 7.1 nM

Structure (SMILES): CC(C)n1ccn([C@H]2CC[C@@H](c3cc(Nc4ccc5c(c4F)CNS5(=O)=O)n[nH]3)C2)c1=O (relative stereo) [Example 83, cis-1-(3-(3-((4-fluoro-1,1-dioxido-2,3-dihydrobenzo[d]isothiazol-5-yl)amino)-1H-pyrazol-5-yl)cyclopentyl)-3-isopropyl-1,3-dihydro-2H-imidazol-2-one]
- IC50 (CDK1/Cyclin B1): > 10000 nM
- IC50 (CDK2/Cyclin E1): 710 nM

Structure (SMILES): O=S1(=O)NCc2c1ccc(Nc1cc([C@H]3CC[C@@H](Oc4ccon4)C3)[nH]n1)c2F (relative stereo) [Example 48, cis-4-fluoro-5-((5-(3-(isoxazol-3-yloxy)cyclopentyl)-1H-pyrazol-3-yl)amino)-2,3-dihydrobenzo[d]isothiazole 1,1-dioxide]
- IC50 (CDK1/Cyclin B1): 425 nM
- IC50 (CDK2/Cyclin E1): 38 nM

Structure (SMILES): O=S1(=O)NCc2c1ccc(Nc1cc([C@H]3CC[C@@H](Oc4ccn[nH]4)C3)[nH]n1)c2F (relative stereo) [Example 62, cis-5-((5-(3-((1H-pyrazol-5-yl)oxy)cyclopentyl)-1H-pyrazol-3-yl)amino)-4-fluoro-2,3-dihydrobenzo[d]isothiazole 1,1-dioxide]
- IC50 (CDK1/Cyclin B1): 571 nM
- IC50 (CDK2/Cyclin E1): 24 nM

Structure (SMILES): CC1(C)CC(=O)N([C@H]2CC[C@@H](c3cc(Nc4ccc5c(c4F)CNS5(=O)=O)n[nH]3)C2)C1=O (relative stereo) [Example 87, cis-1-(3-(3-((4-fluoro-1,1-dioxido-2,3-dihydrobenzo[d]isothiazol-5-yl)amino)-1H-pyrazol-5-yl)cyclopentyl)-3,3-dimethylpyrrolidine-2,5-dione]
- IC50 (CDK1/Cyclin B1): 3250 nM
- IC50 (CDK2/Cyclin E1): 229 nM

Structure (SMILES): O=c1cccnn1[C@H]1CC[C@@H](c2cc(Nc3ccc4c(c3F)CNS4(=O)=O)n[nH]2)C1 (relative stereo) [Example 21, cis-2-(3-(3-((4-fluoro-1,1-dioxido-2,3-dihydrobenzo[d]isothiazol-5-yl)amino)-1H-pyrazol-5-yl)cyclopentyl)pyridazin-3 (2H)-one]
- IC50 (CDK1/Cyclin B1): 142 nM
- IC50 (CDK2/Cyclin E1): 14 nM

Structure (SMILES): CC(C)(C)c1n[nH]cc1OC1CCC(c2cc(Nc3ccc4c(c3F)CNS4(=O)=O)n[nH]2)C1 (single isomer, unassigned) [Example 74a, cis-5-((5-(3-((3-(tert-butyl)-1H-pyrazol-4-yl)oxy)cyclopentyl)-1H-pyrazol-3-yl)amino)-4-fluoro-2,3-dihydrobenzo[d]isothiazole 1,1-dioxide]
- IC50 (CDK1/Cyclin B1): 301 nM
- IC50 (CDK2/Cyclin E1): 4.9 nM

Structure (SMILES): O=S1(=O)NCc2c1ccc(Nc1cc([C@H]3CC[C@@H](Oc4cccnc4)C3)[nH]n1)c2F (relative stereo) [Example 39, cis-4-fluoro-5-((5-(3-(pyridin-3-yloxy)cyclopentyl)-1H-pyrazol-3-yl)amino)-2,3-dihydrobenzo[d]isothiazole 1,1-dioxide]
- IC50 (CDK1/Cyclin B1): 2330 nM
- IC50 (CDK2/Cyclin E1): 55 nM

Structure (SMILES): Cn1cc(O[C@@H]2CC[C@H](c3cc(Nc4ccc5c(c4F)CNS5(=O)=O)n[nH]3)C2)cn1 (relative stereo) [Example 77, cis-4-fluoro-5-((5-(3-((1-methyl-1H-pyrazol-4-yl)oxy)cyclopentyl)-1H-pyrazol-3-yl)amino)-2,3-dihydrobenzo[d]isothiazole 1,1-dioxide]
- IC50 (CDK1/Cyclin B1): > 10000 nM
- IC50 (CDK2/Cyclin E1): 530 nM

Structure (SMILES): O=c1c(-c2ccccc2)ccnn1[C@H]1CC[C@@H](c2cc(Nc3ccc4c(c3F)CNS4(=O)=O)n[nH]2)C1 (relative stereo) [Example 30, cis-2-(3-(3-((4-fluoro-1,1-dioxido-2,3-dihydrobenzo[d]isothiazol-5-yl)amino)-1H-pyrazol-5-yl)cyclopentyl)-4-phenylpyridazin-3 (2H)-one]
- IC50 (CDK1/Cyclin B1): > 10000 nM
- IC50 (CDK2/Cyclin E1): 2080 nM

Structure (SMILES): O=S1(=O)NCc2c1ccc(Nc1cc([C@H]3CC[C@@H](Oc4nnccc4C4CCC4)C3)[nH]n1)c2F (relative stereo) [Example 35, cis-5-((5-(3-((4-cyclobutylpyridazin-3-yl)oxy)cyclopentyl)-1H-pyrazol-3-yl)amino)-4-fluoro-2,3-dihydrobenzo[d]isothiazole 1,1-dioxide]
- IC50 (CDK1/Cyclin B1): 35 nM
- IC50 (CDK2/Cyclin E1): 2.6 nM

Structure (SMILES): C=C(C)c1ccncc1O[C@@H]1CC[C@H](c2cc(Nc3ccc4c(c3F)CNS4(=O)=O)n[nH]2)C1 (relative stereo) [Example 43, cis-4-fluoro-5-((5-(3-((4-(prop-1-en-2-yl)pyridin-3-yl)oxy)cyclopentyl)-1H-pyrazol-3-yl)amino)-2,3-dihydrobenzo[d]isothiazole 1,1-dioxide]
- IC50 (CDK1/Cyclin B1): 58 nM
- IC50 (CDK2/Cyclin E1): 4.3 nM

Structure (SMILES): O=S1(=O)NCc2c1ccc(Nc1cc([C@H]3CC[C@@H](Oc4nscc4C4CC4)C3)[nH]n1)c2F (relative stereo) [Example 53, cis-5-((5-(3-((4-cyclopropylisothiazol-3-yl)oxy)cyclopentyl)-1H-pyrazol-3-yl)amino)-4-fluoro-2,3-dihydrobenzo[d]isothiazole 1,1-dioxide]
- IC50 (CDK1/Cyclin B1): 118 nM
- IC50 (CDK2/Cyclin E1): 4.1 nM

Structure (SMILES): Cc1ccnnc1O[C@@H]1CC[C@H](c2cc(Nc3ccc4c(c3F)CNS4(=O)=O)n[nH]2)C1 (relative stereo) [Example 24, cis-4-fluoro-5-((5-(3-((4-methylpyridazin-3-yl)oxy)cyclopentyl)-1H-pyrazol-3-yl)amino)-2,3-dihydrobenzo[d]isothiazole 1,1-dioxide]
- IC50 (CDK1/Cyclin B1): 49 nM
- IC50 (CDK2/Cyclin E1): 5.7 nM

Structure (SMILES): CC(C)N1CC(=O)N([C@H]2CC[C@@H](c3cc(Nc4ccc5c(c4F)CNS5(=O)=O)n[nH]3)C2)C1=O (relative stereo) [Example 82, cis-3-(3-(3-((4-fluoro-1,1-dioxido-2,3-dihydrobenzo[d]isothiazol-5-yl)amino)-1H-pyrazol-5-yl)cyclopentyl)-1-isopropylimidazolidine-2,4-dione]
- IC50 (CDK1/Cyclin B1): > 10000 nM
- IC50 (CDK2/Cyclin E1): 602 nM
